The nature of the data set: gradient 5% acetonitrile 3 min, to 50% in 2 min, to 85% in 15 min, held 3 min, 100 µL/min. Conditions: column: Zorbax Extend-C18 2.1 x 50 mm; eluents: water / acetonitrile, 0.1% formic acid. The procedure, abridged: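 Standards, all pure, were combined into mixtures of ~100 molecules and run at 100 μL/min on a Zorbax Extend-C18 column (2.1 × 50 mm, 1.8 μm) with water and acetonitrile, each containing 0.1% formic acid. A coupled quadrupole time-of-flight mass spectrometer operated in positive and negative ionization mode. Retention time values come from computationally picked adduct peaks, each inspected manually.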
`O=C(CCCN1CCN(Cc2ccc(F)cc2)C(=O)C1=O)NCCc1ccc(Cl)cc1` showed an RP-LC retention time of 733 s.

`CCN(CC)C(=O)c1ccc2c(c1)N(CC(=O)NCc1ccco1)C(=O)CO2` registered an RP-LC retention time of 652 s.

Regarding `COc1ccc(S(=O)(=O)N2CCCC(C(=O)N3CCCC3)C2)cc1C` (centres undefined), the RP-LC retention time is 806 s.

`COc1ccc(Cn2c(C)c(CNCc3cccnc3)c(C(=O)O)c2C)cc1`: the RP-LC retention time amounted to 597 s.

Molecule `COc1ccc(CCN2C(=O)CC(N3CCN(c4ccccc4)CC3)C2=O)cc1OC` (centres undefined) came in with an RP-LC retention time of 780 s.

For `O=C(NCc1cccnc1)C1c2ccccc2C(=O)N(Cc2ccccc2)C12CCCC2` (centres undefined), the RP-LC retention time was 649 s.

In turn, `O=c1n(Cc2ccccc2F)nc2ccc(S(=O)(=O)N3CCOCC3)cn12` showed an RP-LC retention time of 788 s.

As to `Cc1ccnc(N2CCC(C(=O)NCCCN(C)C3CCCCC3)CC2)n1`, the RP-LC retention time is 587 s.

With `Cc1ccc(S(=O)(=O)N2CC3CN(C(=O)c4ccc5c(c4)OCO5)CC(C2)O3)cc1`, the RP-LC retention time was found to be 804 s.

As for `Cc1nnc(NC(=O)CN2CCCCC2c2nc(C(C)C)no2)s1` (centres undefined), the RP-LC retention time was 781 s.

For `COc1ccc(C(=O)N2CCC(n3c(-c4ccco4)nc4cccnc43)C2)cn1` (centres undefined), the RP-LC retention time was 643 s.

The molecule `O=S(=O)(NC1CCCCC1)c1ccc(-c2nnc(C3CC3)o2)o1` gave an RP-LC retention time of 940 s.

`CC1CCN(C(=O)c2ccc(-c3ccsc3)nc2)CC1` gave an RP-LC retention time of 876 s.

The molecule `Cc1cc(=O)n(CC(=O)Nc2cccc(C)c2C)c(N(C)Cc2ccccc2)n1` gave an RP-LC retention time of 794 s.

`O=C(C1CCCN(c2nn3c(=O)c4c(nc3s2)CCCC4)C1)N1CCC2(CC1)OCCO2` (centres undefined) yielded an RP-LC retention time of 674 s.

In the case of `CC1(C(=O)NCc2ccc(Cl)cc2)CN(S(C)(=O)=O)CC(=O)N1CCc1ccccc1` (centres undefined), the RP-LC retention time stood at 906 s.

`CC(C)(C)c1ccc(S(=O)(=O)Nc2cccc(C(=O)O)c2)cc1` displayed an RP-LC retention time of 810 s.

With `COc1cccc(N2CC(C(=O)N3CC(c4nc(Cc5ccccc5)no4)C3)CC2=O)c1` (centres undefined), the RP-LC retention time was 776 s.

Regarding `O=C(Nc1ccc(N2CCOCC2)cc1)C1(CCO)CCN(c2ncccn2)C1` (centres undefined), the RP-LC retention time turned out to be 549 s.

In the case of `CCCN1C(=O)c2cc(S(=O)(=O)N3CCCCC3)ccc2Oc2cccnc21`, the RP-LC retention time worked out at 1110 s.

In turn, `O=C(Cn1cnc2c(sc3nc(-c4ccccc4)ccc32)c1=O)Nc1ccc2c(c1)OCO2` came in with an RP-LC retention time of 974 s.

For `Cc1cccc(N2CCN(c3ccc4nnc(CCc5nc(-c6ccc(F)cc6)no5)n4n3)CC2)c1`, the RP-LC retention time amounted to 1130 s.

On to `COc1ccc(-c2csc(C)n2)cc1S(=O)(=O)N(C)c1cccc(C)c1`, for which the RP-LC retention time is 1050 s.

With `O=C(Nc1nc(-c2ccc([N+](=O)[O-])cc2)cs1)C1=COCCO1`, the RP-LC retention time is 844 s.

With `CC1CCN(S(=O)(=O)c2cc(C(=O)N3CCN(c4cccc(Cl)c4)CC3)n(C)c2)CC1`, the RP-LC retention time was found to be 1120 s.

As to `Cc1cc(C)nc(Nc2nc(C)c3cc4c(cc3n2)OCO4)n1`, the RP-LC retention time stood at 552 s.

Take `COc1ccc(CCc2nc3cc(-c4c(C)noc4C)ccc3n2C[C@H](C)N2CCOCC2)cc1Cl`: the RP-LC retention time turned out to be 742 s.

Regarding `O=C(NC(Cc1ccccc1)c1nnc(N2CCCCCC2)o1)C1CC1` (centres undefined), the RP-LC retention time was 788 s.

In the case of `CCOC(=O)c1c(S(=O)(=O)N2CCC(C(=O)Nc3ccc(C)c(C)c3)CC2)c(C)n(CC)c1C`, the RP-LC retention time came out at 975 s.

Molecule `CC(C)c1ccc(S(=O)(=O)N(CC(=O)N2CCNCC2)CC(C)c2ccccc2)cc1` (centres undefined) came in with an RP-LC retention time of 772 s.

In turn, `CCc1nc(-c2ccc(OC3CCN(C(=O)c4sc(C)nc4C)C3)cc2)no1` (centres undefined) yielded an RP-LC retention time of 696 s.

For `Cc1sc2ccn(C)c(=O)c2c1C(=O)NCc1cc(F)ccc1F`, the RP-LC retention time amounted to 781 s.

In the case of `CCn1cnc2ccc(-c3noc(-c4cccc(OC)c4)n3)cc21`, the RP-LC retention time worked out at 788 s.

`CN(C)c1cccc(-c2nc(-c3ccc4c(c3)nnn4CCN3CCOCC3)no2)c1` yielded an RP-LC retention time of 706 s.

The molecule `CCC(C(=O)NCCCN1CCN(CC)CC1)n1c2ccccc2c2cnn(C)c(=O)c21` (centres undefined) showed an RP-LC retention time of 594 s.

`CCCCNC(=O)C1CCN(c2cc(N3CCSCC3)ncn2)CC1` returned an RP-LC retention time of 631 s.

In turn, `Cc1ccc(CNC(=O)c2cc3c(s2)CCN(C(=O)c2ccccc2)C3)o1` returned an RP-LC retention time of 881 s.

On to `CC(C)OCCCNC(=O)c1nnc(-c2ccc(S(=O)(=O)N3CCCC3)cc2)o1`, for which the RP-LC retention time was found to be 843 s.

`O=C(CCCN1C(=O)c2cccnc2Sc2ccccc21)N1CCN(c2ccccn2)CC1` had an RP-LC retention time of 592 s.

For `COC(=O)c1ccc(N2C=C(C#N)S(=O)(=O)c3ccc(C)cc32)cc1`, the RP-LC retention time came out at 887 s.

In turn, `O=C(O)C1CCN(c2nc3ccc(-c4ccccc4)nc3s2)CC1` had an RP-LC retention time of 868 s.

Regarding `COc1ccc(Br)c(C(=O)Nc2ccc3c(c2)N(C(=O)C2CCCC2)CC3)c1`, the RP-LC retention time amounted to 950 s.

Molecule `COc1ccc(-n2nc(C(=O)N3CCN(c4ccccn4)CC3)c3c4ccccc4n(C)c3c2=O)cc1` displayed an RP-LC retention time of 676 s.

`COc1ccc(CNC(=O)C2CCN(c3cnc4nccnc4c3)CC2)cc1` yielded an RP-LC retention time of 664 s.

In the case of `O=C(c1ccccc1F)N1CCCCC1c1nncn1CC1CC1` (centres undefined), the RP-LC retention time was 698 s.

As to `Cc1ccc(CNC(=O)C2Cn3cccc3C(=O)N2C)o1` (centres undefined), the RP-LC retention time was 663 s.

In turn, `Cc1ccc(CSc2nnc3c(S(=O)(=O)N4CCCCC4)cccn23)cc1` gave an RP-LC retention time of 928 s.

In turn, `COc1ccc(-c2cc3n(n2)C(NC2CC2)CNC3=O)cc1` (centres undefined) had an RP-LC retention time of 683 s.

For the molecule `COc1ccc(C(=O)Nc2cccn3cnnc23)cc1F`, the RP-LC retention time amounted to 676 s.

With `COc1ccc(Cn2nc3ccc(S(=O)(=O)N4CCCCCC4)cn3c2=O)cc1`, the RP-LC retention time was determined as 935 s.

In turn, `CCn1cc(CCNC(=O)Nc2cccc(OC)c2)c2cccnc21` showed an RP-LC retention time of 733 s.

Consider `COc1ccc(NC(=O)Cn2c(N3CCc4ccccc4C3)nc(C)cc2=O)cc1`, for which the RP-LC retention time came to 757 s.

On to `COc1cccc(CNC(=O)C2CCCN2S(=O)(=O)c2ccc3c(c2)C(C)(C)C(=O)N3C)c1` (centres undefined), for which the RP-LC retention time was determined as 821 s.

In turn, `COc1ccc(S(=O)(=O)N2CC(=O)N(C3CCCC3)C3(CCCCC3)C2)cc1OC` displayed an RP-LC retention time of 1080 s.

As to `Cc1ccc(S(=O)(=O)N2CCC(c3nc(-c4ccncc4)no3)CC2)cc1C`, the RP-LC retention time amounted to 983 s.

In turn, `COCCNc1c(C(=O)OC)c(=O)[nH]c2ccc(F)cc12` returned an RP-LC retention time of 622 s.

`O=C(CSc1nnc(N2CCN(C(=O)c3cccs3)CC2)s1)NCc1ccco1` came in with an RP-LC retention time of 642 s.

`OCCNCc1ccc(-c2cc(Cl)ccc2Cl)o1`: the RP-LC retention time was found to be 657 s.

Take `CC(C)C(=O)NC(C)c1nc(-c2ccccc2Cl)no1` (centres undefined): the RP-LC retention time was found to be 834 s.

These data come from the METLIN SMRT retention time set (Domingo-Almenara et al. 2019).
